Data published in ChEMBL document CHEMBL5042536, “Development of High Brain-Penetrant and Reversible Monoacylglycerol Lipase PET Tracers for Neuroimaging” (J Med Chem, 2022).
Blank lines part the entries; values can stand above or below the compound they belong to.

How the values were obtained:
[1] = biological target: T1, Monoglyceride lipase (Mus musculus, UniProt O35678); assay: Inhibition of mouse MAGL using 2-AG as substrate incubated for 30 mins
T1 sequence (O35678 whole entry): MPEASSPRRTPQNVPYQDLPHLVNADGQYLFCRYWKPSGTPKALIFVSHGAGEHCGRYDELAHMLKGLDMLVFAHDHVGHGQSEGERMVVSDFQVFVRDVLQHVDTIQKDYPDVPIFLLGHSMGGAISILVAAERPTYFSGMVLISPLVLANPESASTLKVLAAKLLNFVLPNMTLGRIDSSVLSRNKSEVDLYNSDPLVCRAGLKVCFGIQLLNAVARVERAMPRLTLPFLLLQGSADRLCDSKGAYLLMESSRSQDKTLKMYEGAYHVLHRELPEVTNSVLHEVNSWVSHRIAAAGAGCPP

[2] = Drug uptake in Wistar rat brain Cortex at 5 nM incubated for 30 mins by autoradiography; type: ADME, tissue-based; settings: 0.5 h, 0.005 µM
[3] = Drug uptake in Wistar rat brain incubated for 30 mins in presence of PF-06809247 by autoradiography; type: ADME, tissue-based; settings: 0.5 h
[4] = Drug uptake in Wistar rat brain Hippocampus at 2 nM incubated for 30 mins by autoradiography; type: ADME, tissue-based; settings: 0.5 h, 0.002 µM
[5] = Drug uptake in Wistar rat brain striatum at 2 nM incubated for 30 mins by autoradiography; type: ADME, tissue-based; settings: 0.5 h, 0.002 µM
[6] = Drug uptake in Wistar rat brain Thalamus at 2 nM incubated for 30 mins by autoradiography; type: ADME, tissue-based; settings: 0.5 h, 0.002 µM
[7] = Drug uptake in Wistar rat brain striatum at 5 nM incubated for 30 mins by autoradiography; type: ADME, tissue-based; settings: 0.5 h, 0.005 µM
[8] = Drug uptake in Wistar rat brain incubated for 30 mins in presence of SAR127303 by autoradiography; type: ADME, tissue-based; settings: 0.5 h
[9] = Distribution coefficient between 1-octanol and phosphate buffer, logD of the compound after 15 mins by shake flask assay; type: physicochemical; settings: 1-octanol/phosphate buffer
[10] = Drug uptake in MAGL knockout mouse brain incubated for 30 mins by autoradiography relative to control; type: ADME, tissue-based; settings: 0.5 h
[11] = Drug uptake in wild type mouse brain at 0.74 at 4.94 nmol/kg, iv and measured after 1 min post infection by PET imaging anlaysis; type: ADME, organism-based; settings: in vivo
[12] = Drug uptake in […] mouse brain incubated for 30 mins by autoradiography; type: ADME, tissue-based; settings: 0.5 h
[13] = Drug uptake in Wistar rat brain Hippocampus at 5 nM incubated for 30 mins by autoradiography; type: ADME, tissue-based; settings: 0.5 h, 0.005 µM
[14] = Drug uptake in Wistar rat brain Cerebellum at 5 nM incubated for 30 mins by autoradiography; type: ADME, tissue-based; settings: 0.5 h, 0.005 µM
[15] = Drug uptake in Wistar rat brain Thalamus at 5 nM incubated for 30 mins by autoradiography; type: ADME, tissue-based; settings: 0.5 h, 0.005 µM
[16] = Drug uptake in Wistar rat brain Cortex at 2 nM incubated for 30 mins by autoradiography; type: ADME, tissue-based; settings: 0.5 h, 0.002 µM
[17] = Drug uptake in Wistar rat brain Cerebellum at 2 nM incubated for 30 mins by autoradiography; type: ADME, tissue-based; settings: 0.5 h, 0.002 µM
[18] = Drug uptake in C57BL/6 mouse brain at 4.41 to 6.8 nmol/kg, iv and measured after 1 min post infection by PET imaging anlaysis; type: ADME, organism-based; settings: in vivo, dose 4.41-6.8 nmol/kg
[19] = Clearance in mouse liver microsomes by LC/MS analysis; type: ADME, Microsome; settings: read-out: CLH
[20] = Stability in human serum at 37 degC for 2 hrs by UPLC analysis; type: ADME, cell-free; settings: read-out: Stability
[21] = Protein binding in mouse plasma assessed as free plasma concentration incubated for 10 mins by ultracentrifugation; type: ADME, cell-free
[22] = Protein binding in human plasma assessed as free plasma concentration incubated for 10 mins by ultracentrifugation; type: ADME, cell-free
[23] = Stability in mouse serum at 37 degC for 2 hrs by UPLC analysis; type: ADME, cell-free; settings: read-out: Stability
[24] = Drug metabolism in C57BL/6 mouse brain assessed as intact parent compound 46.50 to 49.39 MBq, iv and measured after 60 mins post injection by radio-UPLC analysis; type: ADME, organism-based; settings: dose 46.5-49.39 MBq, read-out: Stability
[25] = Drug metabolism in C57BL/6 mouse brain assessed as intact parent compound at 46.50 to 49.39 MBq, iv and measured after 40 mins post injection by radio-UPLC analysis; type: ADME, organism-based; settings: dose 46.5-49.39 MBq, read-out: Stability
[26] = Inhibition of Cynomolgus monkey MAGL using 2-AG as substrate incubated for 30 mins; design: species or system Macaca fascicularis
[27] = Drug metabolism in C57BL/6 mouse brain assessed as intact parent compound at 46.50 to 49.39 MBq, iv and measured after 20 mins post injection by radio-UPLC analysis; type: ADME, organism-based; settings: dose 46.5-49.39 MBq, read-out: Stability
[28] = Clearance in human liver microsomes by LC/MS analysis; type: ADME, Microsome; settings: read-out: CLH
[29] = Metabolic stability in C57BL/6 mouse brain assessed as remaining parent compound 46.50 to 49.39 MBq, iv and measured after 90 mins post injection by radio-UPLC analysis; type: ADME, organism-based; settings: dose 46.5-49.39 MBq, read-out: Stability

Structure (SMILES): O=C1CC(N2CCN(c3ncccn3)CC2)CN1c1ccc(N2CC[C@H](F)C2)cc1 (stereo partly specified)
IC50 [1]: 80 nM

Structure (SMILES): O=C(c1ccco1)N1CCN(C2CC(=O)N(c3ccc(-c4ccccc4F)cc3)C2)CC1 (stereo unspecified)
IC50 [1]: 37 nM

Structure (SMILES): COc1ccccc1-c1ccc(N2CC(N3CCN(c4ncccn4)CC3)CC2=O)cc1 (stereo unspecified)
IC50 [1]: 72 nM

Structure (SMILES): O=C(c1ccco1)N1CCN(C2CC(=O)N(c3cccc(-c4cccc(F)c4)c3)C2)CC1 (stereo unspecified)
IC50 [1]: 41 nM

Structure (SMILES): O=C(c1ccco1)N1CCN([C@H]2CC(=O)N(c3ccc(-c4ccc(F)cc4)cc3)C2)CC1
IC50 [1]: 138 nM

Structure (SMILES): COc1ccccc1-c1ccc(N2CC(N3CCN(C(=O)c4ccco4)CC3)CC2=O)cc1 (stereo unspecified)
IC50 [1]: 30 nM

Structure (SMILES): COc1cccc(-c2ccc(N3CC(N4CCN(C(=O)c5ccco5)CC4)CC3=O)cc2)c1 (stereo unspecified)
Drug uptake [2]: Active | IC50 [1]: 9 nM | Drug uptake [3]: 41% | Drug uptake [4]: Active | Drug uptake [5]: Active | Drug uptake [6]: Active | Drug uptake [7]: Active | Drug uptake [8]: 41% | logD at 0.25 h [9]: 2.24 | Drug uptake [10]: 41% | SUV [11]: 1.2 | Drug uptake [12]: Not Active | Drug uptake [13]: Active | Drug uptake [14]: Active | Drug uptake [15]: Active | Drug uptake [16]: Active | Drug uptake [17]: Active

Structure (SMILES): COc1ccccc1-c1cccc(N2CC(N3CCN(c4ncccn4)CC3)CC2=O)c1 (stereo unspecified)
IC50 [1]: 85 nM

Structure (SMILES): O=C(c1ccco1)N1CCN(C2CC(=O)N(c3cccc(N4CC[C@@H](F)C4)c3)C2)CC1 (stereo partly specified)
IC50 [1]: 2920 nM

Structure (SMILES): O=C1CC(N2CCN(c3ncccn3)CC2)CN1c1cccc(-c2ccc(F)nc2)c1 (stereo unspecified)
IC50 [1]: 2100 nM

Structure (SMILES): O=C1CC(N2CCN(c3ncccn3)CC2)CN1c1cccc(-c2cccnc2F)c1 (stereo unspecified)
IC50 [1]: 305 nM

Structure (SMILES): Cc1ccnc(F)c1-c1cccc(N2C[C@H](N3CCN(C(=O)c4nccs4)CC3)CC2=O)c1
IC50 [1]: 13 nM | remaining at 1.5 h [29]: 73%

Structure (SMILES): O=C(c1ccco1)N1CCN(C2CC(=O)N(c3ccc(-c4ccc(F)cc4)cc3)C2)CC1 (stereo unspecified)
IC50 [1]: 13 nM

Further compounds by falling IC50 [1], results first:

IC50 [1]: 10700 nM
Structure (SMILES): O=C1CC(N2CCN(c3ncccn3)CC2)CN1c1cccc(N2CC[C@@H](F)C2)c1 (stereo partly specified)

IC50 [1]: 9300 nM
Structure (SMILES): O=C1CC(N2CCN(c3ncccn3)CC2)CN1c1cccc(N2CC[C@H](F)C2)c1 (stereo partly specified)

IC50 [1]: 1080 nM
Structure (SMILES): O=C(c1ccco1)N1CCN(C2CC(=O)N(c3ccc(N4CC[C@@H](F)C4)cc3)C2)CC1 (stereo partly specified)

IC50 [1]: 127 nM
Structure (SMILES): O=C(c1ccco1)N1CCN(C2CC(=O)N(c3ccc(-c4ccc(F)nc4)cc3)C2)CC1 (stereo unspecified)

IC50 [1]: 39 nM
Structure (SMILES): COc1cccc(-c2cccc(N3CC(N4CCN(c5ncccn5)CC4)CC3=O)c2)c1 (stereo unspecified)

IC50 [1]: 20 nM
Structure (SMILES): COc1cccc(-c2ccc(N3CC(N4CCN(c5ncccn5)CC4)CC3=O)cc2)c1 (stereo unspecified)

Drug uptake [2]: Active | IC50 [1]: 15 nM | Drug uptake [3]: 41% | Drug uptake [4]: Active | Drug uptake [5]: Active | Drug uptake [6]: Active | Drug uptake [7]: Active | Drug uptake [8]: 41% | logD at 0.25 h [9]: 2.31 | Drug uptake [10]: 54% | Drug uptake [12]: Not Active | SUV [18]: 0.6 | Drug uptake [13]: Active | Drug uptake [14]: Active | Drug uptake [15]: Active | Drug uptake [16]: Active | Drug uptake [17]: Active
Structure (SMILES): COc1cccc(-c2cccc(N3CC(N4CCN(C(=O)c5ccco5)CC4)CC3=O)c2)c1 (stereo unspecified)

IC50 [1]: 8 nM | microsomal CLint [19]: 124 µL/min/mg | remaining at 2 h [20]: > 95% | fraction unbound at 10 min [21]: 0.24 | fraction unbound at 10 min [22]: 0.12 | remaining at 2 h [23]: > 95% | logD at 0.25 h [9]: 2.37 | remaining at 1 h [24]: 68% | remaining at 40 min [25]: 70% | SUV [18]: 1.63 | IC50 [26]: 14 nM | remaining at 20 min [27]: 95% | microsomal CLint [28]: 21 µL/min/mg
Structure (SMILES): O=C(c1ccco1)N1CCN([C@@H]2CC(=O)N(c3ccc(-c4ccc(F)cc4)cc3)C2)CC1
